# Experimental data from US12060385B2, “Compounds for RNA capping and uses thereof” (GUANGZHOU HENOVCOM BIOSCIENCE CO., LTD., priority 2022, dated 2024).
# Assays:
# [1] = biological target: T7 RNA Polymerase (Escherichia phage T7, UniProt P00573); assay type: biochemical; conditions: 20 μL transcription system, Cap1 Analog 4 mM, 37° C. 2 to 3 hours
# Method: • 1) A plasmid was linearized and the DNA template was purified. • 2) mRNA was synthesized in vitro with 51 types of capping structures of the present disclosure, or without any cap analogues. CleanCap®AG (3′OMe) (Trilink, N-7413) was applied as positive control group, uncapped mRNA was negative control group, and DNAase/RNase-Free water was a blank control group.
# The system was incubated for 2 to 3 hours at 37° C. and digested by TURBO DNase for 15 min LiCl was used to precipitate mRNA for at least 30 min, or overnight, mRNA precipitates were then washed with 75% ethanol. After ethanol was quickly volatilized, mRNA was re-solubilized with RNase-Free water. • 3) The transcribed products were purified and the transcription yields were calculated.
# [2] = test system: mRNA; assay: Capping efficiency of mRNA with different cap analogs by LC-MS; assay type: biochemical; conditions: LC-MS after RNase H cleavage
# Method: In a PCR machine, the annealing was performed using the following gradients: • 95° C. for 5 min; 65° C. for 2 min; 55° C. for 2 min; 40° C. for 2 min; 22° C. for 2 min • 5) Pre-treatment of magnetic beads were bound with probes.
# 100 μL of magnetic beads were placed on a magnetic rack and the preservation solution was removed. 100 μL of 1*BW solution was added, mixed well, and placed on the magnetic rack, and the supernatant was then removed. The washing step was repeated three times. 100 μL of wash A buffer was added, mixed well, and placed on the magnetic rack, and the supernatant was then removed. The washing step was repeated three times. 100 μL of wash B buffer was added, mixed well, and placed on the magnetic rack, and the supernatant was then removed. The washing step was repeated three times. After 120 μL of sample was added, the sample and the magnetic beads solution were incubated for 30 min at room temperature, and they were gently mixed well while incubation. • 6) mRNA was spliced to obtain 5′ end mRNA single stranded sequence and binding with the probe.
# 20 μL of RNase H (5 U/mL) was added, incubated for 3 hours at 37° C., mixed once every half an hour. 100 μL of 1*BW solution was added, mixed well, and placed on the magnetic rack, and then the supernatant was removed. The washing step was repeated three times. Subsequently, 100 μL of deionized aqueous solution was added, mixed well, and placed on the magnetic rack, and the supernatant was then removed. The washing step was repeated three times. 100 μL of 75% methanol at 80° C. was added, and the mixture was incubated at 80° C. on a heater plate for 3 min, and placed on the magnetic rack, and the supernatant was then pipetted. The sample was dried using an evaporative centrifuge at room temperature for 45 min to 10 μL, and then resuspended in 50 μL of 100 μM EDTA solution in 1% MeOH for LC-MS analysis.
# The capping efficiencies of mRNA with different cap analogs were determined by LC-MS, and some compounds of the results were shown in Table 4.
# T7 RNA Polymerase, sequence (P00573 whole entry): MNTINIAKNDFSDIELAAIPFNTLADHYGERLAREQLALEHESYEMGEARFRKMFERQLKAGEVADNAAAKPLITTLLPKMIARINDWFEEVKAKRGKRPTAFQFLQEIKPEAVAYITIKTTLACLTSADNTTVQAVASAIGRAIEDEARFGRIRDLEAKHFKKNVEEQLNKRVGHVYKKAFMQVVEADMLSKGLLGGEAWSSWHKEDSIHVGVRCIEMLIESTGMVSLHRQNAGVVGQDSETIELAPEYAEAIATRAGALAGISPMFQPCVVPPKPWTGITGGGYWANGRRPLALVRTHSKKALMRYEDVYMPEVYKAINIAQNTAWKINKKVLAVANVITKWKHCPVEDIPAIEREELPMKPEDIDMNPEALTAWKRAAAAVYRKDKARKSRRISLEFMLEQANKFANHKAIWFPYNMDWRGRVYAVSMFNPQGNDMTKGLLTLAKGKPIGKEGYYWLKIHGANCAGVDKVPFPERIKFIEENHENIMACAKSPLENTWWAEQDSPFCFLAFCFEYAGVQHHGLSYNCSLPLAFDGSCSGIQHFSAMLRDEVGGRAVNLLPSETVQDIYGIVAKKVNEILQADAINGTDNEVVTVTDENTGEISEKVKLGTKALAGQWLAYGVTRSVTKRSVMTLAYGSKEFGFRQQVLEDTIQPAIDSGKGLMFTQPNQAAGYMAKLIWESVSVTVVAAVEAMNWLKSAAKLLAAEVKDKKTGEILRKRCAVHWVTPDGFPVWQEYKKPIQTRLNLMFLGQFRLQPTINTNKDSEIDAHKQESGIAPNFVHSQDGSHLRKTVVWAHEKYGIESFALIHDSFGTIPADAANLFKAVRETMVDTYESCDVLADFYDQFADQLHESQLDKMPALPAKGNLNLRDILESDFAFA
Compound,Final product mass obtained from the 20 μL of mRNA transcription system [1],Capping efficiency [2]
CO[C@@H]1[C@H](OP(=O)([O-])OC[C@H]2O[C@@H](n3cnc4c(=O)[nH]c(N)nc43)[C@H](O)[C@@H]2O)[C@@H](COP(=O)(O)OP(=O)(O)OP(=O)(O)OC[C@H]2OC(n3c[n+](C)c4c(=O)[nH]c(N)nc43)[C@H](O)[C@@H]2CC(=O)N(C)C)O[C@H]1n1cnc2c(N)ncnc21 (stereo partly shown) [Compound 4],78 µg,A (100% > A ≥ 95%)
CO[C@@H]1[C@H](OP(=O)([O-])OC[C@H]2O[C@@H](n3cnc4c(=O)[nH]c(N)nc43)[C@H](O)[C@@H]2O)[C@@H](COP(=O)(O)OP(=O)(O)OP(=O)(O)OC[C@H]2O[C@@H](n3c[n+](C)c4c(=O)[nH]c(N)nc43)[C@H](O)[C@@H]2CNC(C)=O)O[C@H]1n1cnc2c(N)ncnc21 [Compound 6],103 µg,A (100% > A ≥ 95%)
CCOC[C@H]1[C@@H](O)[C@H](n2c[n+](C)c3c(=O)[nH]c(N)nc32)O[C@@H]1COP(=O)(O)OP(=O)(O)OP(=O)(O)OC[C@H]1O[C@@H](n2cnc3c(N)ncnc32)[C@H](OC)[C@@H]1OP(=O)(O)OC[C@H]1O[C@@H](n2cnc3c(=O)[nH]c(N)nc32)[C@H](O)[C@@H]1O [Compound 139],116 µg,A (100% > A ≥ 95%)
COCCOC[C@H]1[C@@H](O)[C@H](n2c[n+](C)c3c(=O)[nH]c(N)nc32)O[C@@H]1COP(=O)(O)OP(=O)(O)OP(=O)(O)OC[C@H]1O[C@@H](n2cnc3c(N)ncnc32)[C@H](OC)[C@@H]1OP(=O)(O)OC[C@H]1O[C@@H](n2cnc3c(=O)[nH]c(N)nc32)[C@H](O)[C@@H]1O [Compound 141],84 µg,A (100% > A ≥ 95%)
CO[C@@H]1[C@H](OP(=O)(O)OC[C@H]2O[C@@H](n3cnc4c(=O)[nH]c(N)nc43)[C@H](O)[C@@H]2O)[C@@H](COP(=O)(O)CP(=O)(O)OP(=O)(O)OC[C@H]2O[C@@H](n3c[n+](C)c4c(=O)[nH]c(N)nc43)[C@H](O)[C@@H]2CNC(C)=O)O[C@H]1n1cnc2c(N)ncnc21 [Compound 329],110 µg,–
CNC(=O)C[C@H]1[C@@H](O)[C@H](n2c[n+](C)c3c(=O)[nH]c(N)nc32)O[C@@H]1COP(=O)(O)OP(=O)(O)OP(=O)(O)OC[C@H]1O[C@@H](n2cnc3c(N)ncnc32)[C@H](OC)[C@@H]1OP(=O)(O)OC[C@H]1O[C@@H](n2cnc3c(=O)[nH]c(N)nc32)[C@H](O)[C@@H]1O [Compound 393],95 µg,A (100% > A ≥ 95%)
CNC(=O)C[C@H]1[C@@H](O)[C@H](n2c[n+](C)c3c(=O)[nH]c(N)nc32)O[C@@H]1COP(=O)(O)OP(=O)(O)OP(=O)(O)OC[C@H]1O[C@@H](n2cnc3c(N)ncnc32)[C@H](OC)[C@@H]1OP(=O)(O)OC[C@H]1O[C@@H](n2ccc(=O)[nH]c2=O)[C@H](O)[C@@H]1O [Compound 394],107 µg,–
CNC(=O)CC[C@H]1[C@@H](O)[C@H](n2c[n+](C)c3c(=O)[nH]c(N)nc32)O[C@@H]1COP(=O)(O)OP(=O)(O)OP(=O)(O)OC[C@H]1O[C@@H](n2cnc3c(N)ncnc32)[C@H](OC)[C@@H]1OP(=O)(O)OC[C@H]1O[C@@H](n2cnc3c(=O)[nH]c(N)nc32)[C@H](O)[C@@H]1O [Compound 415],108 µg,–
CO[C@@H]1[C@H](OP(=O)(O)OC[C@H]2O[C@@H](n3cnc4c(=O)[nH]c(N)nc43)[C@H](O)[C@@H]2O)[C@@H](COP(=O)(O)CP(=O)(O)OP(=O)(O)OC[C@H]2O[C@@H](n3c[n+](C)c4c(=O)[nH]c(N)nc43)[C@H](O)[C@@H]2CC(=O)N(C)C)O[C@H]1n1cnc2c(N)ncnc21 [Compound 421],98 µg,–
CO[C@@H]1[C@H](OP(=O)(O)OC[C@H]2O[C@@H](n3cnc4c(=O)[nH]c(N)nc43)[C@H](O)[C@@H]2O)[C@@H](COP(=O)(O)OP(=O)(O)OP(=O)(O)OP(=O)(O)OC[C@H]2O[C@@H](n3c[n+](C)c4c(=O)[nH]c(N)nc43)[C@H](O)[C@@H]2CC(=O)N(C)C)O[C@H]1n1cnc2c(N)ncnc21 [Compound 437],114 µg,–
CO[C@@H]1[C@H](OP(=O)([O-])OC[C@H]2O[C@@H](n3cnc4c(=O)[nH]c(N)nc43)[C@H](O)[C@@H]2O)[C@@H](CSP(=O)(O)OP(=O)(O)OP(=O)(O)OC[C@H]2O[C@@H](n3c[n+](C)c4c(=O)[nH]c(N)nc43)[C@H](O)[C@@H]2CNC(C)=O)O[C@H]1n1cnc2c(N)ncnc21 [Compound 561],108 µg,–
CNC(=O)OC[C@H]1[C@@H](O)[C@H](n2c[n+](C)c3c(=O)[nH]c(N)nc32)O[C@@H]1COP(=O)(O)OP(=O)(O)OP(=O)(O)OC[C@H]1O[C@@H](n2cnc3c(N)ncnc32)[C@H](OC)[C@@H]1OP(=O)([O-])OC[C@H]1O[C@@H](n2cnc3c(=O)[nH]c(N)nc32)[C@H](O)[C@@H]1O [Compound 631],105 µg,–
CO[C@@H]1[C@H](OP(=O)([O-])OC[C@H]2O[C@@H](n3cnc4c(=O)[nH]c(N)nc43)[C@H](O)[C@@H]2O)[C@@H](COP(=O)(O)OP(=O)(O)OP(=O)(O)OC[C@H]2O[C@@H](n3c[n+](C)c4c(=O)[nH]c(N)nc43)[C@H](O)[C@@H]2CCN2CCOCC2)O[C@H]1n1cnc2c(N)ncnc21 [Compound 633],100 µg,B (95% > B ≥ 90%)
CO[C@@H]1[C@H](OP(=O)([O-])OC[C@H]2O[C@@H](n3cnc4c(=O)[nH]c(N)nc43)[C@H](O)[C@@H]2O)[C@@H](COP(=O)(O)OP(=O)(O)OP(=O)(O)OC[C@H]2O[C@@H](n3c[n+](C)c4c(=O)[nH]c(N)nc43)[C@H](O)[C@@H]2CN=[N+]=[N-])O[C@H]1n1cnc2c(N)ncnc21 [Compound 635],118 µg,–
COC[C@H]1[C@@H](OC)[C@H](n2c[n+](C)c3c(=O)[nH]c(N)nc32)O[C@@H]1COP(=O)(O)OP(=O)(O)OP(=O)(O)OC[C@H]1O[C@@H](n2cnc3c(N)ncnc32)[C@H](OC)[C@@H]1OP(=O)(O)OC[C@H]1O[C@@H](n2cnc3c(=O)[nH]c(N)nc32)[C@H](O)[C@@H]1O [Compound 637],88 µg,–
CO[C@@H]1[C@H](OP(=O)(O)OC[C@H]2O[C@@H](n3cnc4c(=O)[nH]c(N)nc43)[C@H](O)[C@@H]2O)[C@@H](COP(=O)(O)OP(=O)(O)OP(=O)(O)OC[C@H]2O[C@@H](n3c[n+](C)c4c(=O)[nH]c(N)nc43)[C@H](O)[C@@H]2CNC(=O)N(C)C)O[C@H]1n1cnc2c(N)ncnc21 [Compound 639],94 µg,–
CO[C@@H]1[C@H](CNC(C)=O)[C@@H](COP(=O)(O)OP(=O)(O)OP(=O)(O)OC[C@H]2O[C@@H](n3cnc4c(N)ncnc43)[C@H](OC)[C@@H]2OP(=O)(O)OC[C@H]2O[C@@H](n3cnc4c(=O)[nH]c(N)nc43)[C@H](O)[C@@H]2O)O[C@H]1n1c[n+](C)c2c(=O)[nH]c(N)nc21 [Compound 641],89 µg,–
CCCCCCNC(=O)C[C@H]1[C@@H](O)[C@H](n2c[n+](C)c3c(=O)[nH]c(N)nc32)O[C@@H]1COP(=O)(O)OP(=O)(O)OP(=O)(O)OC[C@H]1O[C@@H](n2cnc3c(N)ncnc32)[C@H](OC)[C@@H]1OP(=O)([O-])OC[C@H]1O[C@@H](n2cnc3c(=O)[nH]c(N)nc32)[C@H](O)[C@@H]1O [Compound 643],121 µg,–
CNC(=O)C[C@H]1[C@@H](OC)[C@H](n2c[n+](C)c3c(=O)[nH]c(N)nc32)O[C@@H]1COP(=O)(O)OP(=O)(O)OP(=O)(O)OC[C@H]1O[C@@H](n2cnc3c(N)ncnc32)[C@H](OC)[C@@H]1OP(=O)(O)OC[C@H]1O[C@@H](n2cnc3c(=O)[nH]c(N)nc32)[C@H](O)[C@@H]1O [Compound 645],116 µg,–
